The source of these data is patent US11407767B2, “Heterocyclyl substituted pyrrolopyridines that are inhibitors of the CDK12 kinase” (The University of Nottingham, priority 2017, dated 2022).

Experiment [1] concerns the target CDK12/CycK (Homo sapiens, UniProt Q9NYV4). In words: Inhibition of CDK12 (ADP-Glo kinase assay). The class given is biochemical. The settings on record: 60 nM CDK12/CycK, 30 minutes pre-incubation, 1 μM ATP, 0.5 μM RBER-IRStide substrate, 1 h at 25° C., read-out: CDK12/cyclin K IC50. In short, it runs like this:
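Compounds pre-incubated 30 min with 60 nM CDK12/CycK in HEPES pH 7.5 buffer with Mg2+/Mn2+, 1% DMSO final. Reaction started with 1 μM ATP and 0.5 μM RBER-IRStide, run 1 h at 25 °C; ADP-Glo luminescence, no-kinase blank subtracted, IC50 from sigmoidal fit of % inhibition.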
For orientation: In ADP-Glo the light output rises with the ADP produced.

In experiment [2] the test system is DM1 fibroblasts. In words: Nuclear foci assay. The format is cell-based. The settings on record: Fibroblast; DM1 fibroblasts treated for 24 hours, 11 point dilution 20 μM-19 nM, in situ hybridisation with cy3 labelled CAG10 probe. The method, then: DM1 fibroblasts were treated with compounds in an 11 point dilution series from 20 μM-19 nM for 24 hours. Following treatment, fluorescent in situ hybridisation was performed with a cy3 labelled CAG10 probe, to visualize nuclear foci and cells were analysed on a Molecular Devices plate reader with customised MetaExpress software (Ketley, A. et al. (2014). Hum Mol Genet, 23: 1551-1562). Compounds that reduced nuclear foci in a concentration dependent manner, compared to DMSO treated cells were identified.

Structures can show the parent of a compound that is named as a salt.

Chain of CDK12/CycK (Q9NYV4 whole entry): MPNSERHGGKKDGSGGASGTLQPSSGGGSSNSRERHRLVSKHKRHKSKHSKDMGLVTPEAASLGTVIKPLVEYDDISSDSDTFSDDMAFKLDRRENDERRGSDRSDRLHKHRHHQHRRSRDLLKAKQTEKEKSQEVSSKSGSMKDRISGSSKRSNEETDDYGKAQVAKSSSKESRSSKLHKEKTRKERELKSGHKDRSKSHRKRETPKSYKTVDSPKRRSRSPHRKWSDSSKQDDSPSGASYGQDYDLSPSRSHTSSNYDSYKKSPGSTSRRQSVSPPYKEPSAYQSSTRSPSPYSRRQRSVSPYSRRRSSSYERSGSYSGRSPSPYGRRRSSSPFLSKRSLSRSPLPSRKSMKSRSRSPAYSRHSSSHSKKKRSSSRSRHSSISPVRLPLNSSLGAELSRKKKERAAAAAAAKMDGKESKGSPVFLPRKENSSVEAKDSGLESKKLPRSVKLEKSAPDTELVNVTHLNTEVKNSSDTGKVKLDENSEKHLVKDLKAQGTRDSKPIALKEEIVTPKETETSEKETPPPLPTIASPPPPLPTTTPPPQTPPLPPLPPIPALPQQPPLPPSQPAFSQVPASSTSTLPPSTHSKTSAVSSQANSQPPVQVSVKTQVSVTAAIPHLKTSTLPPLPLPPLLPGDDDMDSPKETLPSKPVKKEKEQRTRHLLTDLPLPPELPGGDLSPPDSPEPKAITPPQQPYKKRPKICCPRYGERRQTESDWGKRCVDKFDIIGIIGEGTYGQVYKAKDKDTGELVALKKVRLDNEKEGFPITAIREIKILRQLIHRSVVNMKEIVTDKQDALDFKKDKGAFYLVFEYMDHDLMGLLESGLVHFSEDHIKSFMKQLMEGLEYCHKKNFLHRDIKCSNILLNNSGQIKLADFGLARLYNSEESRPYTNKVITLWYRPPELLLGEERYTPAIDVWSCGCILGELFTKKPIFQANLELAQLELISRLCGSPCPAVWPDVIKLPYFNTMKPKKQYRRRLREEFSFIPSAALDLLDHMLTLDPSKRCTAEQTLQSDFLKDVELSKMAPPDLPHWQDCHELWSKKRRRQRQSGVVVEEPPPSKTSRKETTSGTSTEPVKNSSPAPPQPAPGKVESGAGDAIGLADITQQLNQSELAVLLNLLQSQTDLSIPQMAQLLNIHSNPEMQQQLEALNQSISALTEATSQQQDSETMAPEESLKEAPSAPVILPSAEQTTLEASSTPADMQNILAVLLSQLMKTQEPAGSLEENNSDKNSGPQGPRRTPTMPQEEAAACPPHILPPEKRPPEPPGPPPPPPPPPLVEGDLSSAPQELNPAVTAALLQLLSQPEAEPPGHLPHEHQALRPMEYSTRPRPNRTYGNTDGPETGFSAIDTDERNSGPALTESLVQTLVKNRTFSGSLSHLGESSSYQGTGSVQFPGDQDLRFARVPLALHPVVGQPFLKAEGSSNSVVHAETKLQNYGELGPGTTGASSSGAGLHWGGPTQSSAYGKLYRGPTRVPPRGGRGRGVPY
Chain of CDK12/CycK (O75909 whole entry partner): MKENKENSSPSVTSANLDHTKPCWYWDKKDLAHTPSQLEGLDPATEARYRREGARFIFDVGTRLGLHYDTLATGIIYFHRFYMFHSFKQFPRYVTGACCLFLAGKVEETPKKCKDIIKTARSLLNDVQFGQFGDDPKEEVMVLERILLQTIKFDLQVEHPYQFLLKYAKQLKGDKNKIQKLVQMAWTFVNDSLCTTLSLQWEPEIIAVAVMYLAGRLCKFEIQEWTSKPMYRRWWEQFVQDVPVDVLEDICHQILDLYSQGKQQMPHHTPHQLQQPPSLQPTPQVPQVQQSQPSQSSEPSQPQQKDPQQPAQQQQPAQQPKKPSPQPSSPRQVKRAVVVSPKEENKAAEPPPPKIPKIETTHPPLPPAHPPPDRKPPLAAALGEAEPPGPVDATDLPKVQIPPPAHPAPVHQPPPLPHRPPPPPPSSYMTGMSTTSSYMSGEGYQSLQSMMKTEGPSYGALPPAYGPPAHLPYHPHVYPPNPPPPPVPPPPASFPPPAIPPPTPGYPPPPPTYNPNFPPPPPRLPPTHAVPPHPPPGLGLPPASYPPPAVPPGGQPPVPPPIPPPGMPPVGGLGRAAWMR

On to `C=CC(=O)N1CCC[C@H]1C(=O)N1CCN(Cc2cc3c(-c4cnn5ncccc45)ccnc3[nH]2)CC1` [Example 113, (S)-1-(2-(4-((4-(Pyrazolo[1,5-b]pyridazin-3-yl)-1H-pyrrolo[2,3-b]pyridin-2-yl)methyl)piperazine-1-carbonyl)pyrrolidin-1-yl)prop-2-en-1-one], for which the results for the IC50 in experiment [1] and in experiment [2] were 1000 to 30000 nM and 10000 to 100000 nM, respectively.

As to `C=CC(=O)Nc1ccc(C(=O)N2CCC(c3cc4c(-c5cnn6ncccc56)ccnc4[nH]3)C2)cc1` (centres unmarked) [Example 126, N-(4-(3-(4-(Pyrazolo[1,5-b]pyridazin-3-yl)-1H-pyrrolo[2,3-b]pyridin-2-yl)pyrrolidine-1-carbonyl)phenyl)acrylamide], the IC50 in experiment [1] is less than 100 nM; in experiment [2], less than 1000 nM.

As for `CN(C)C/C=C/C(=O)Nc1ccc(C(=O)N2CCC(c3cc4c(-c5cnn6ncccc56)ccnc4[nH]3)C2)cc1` (centres unmarked) [Example 127, (E)-4-(Dimethylamino)-N-(4-(3-(4-(pyrazolo[1,5-b]pyridazin-3-yl)-1H-pyrrolo[2,3-b]pyridin-2-yl)pyrrolidine-1-carbonyl)phenyl)but-2-enamide Formate Salt], the IC50 in experiment [1] was less than 100 nM; in experiment [2], less than 1000 nM.

Regarding `C=CC(=O)Nc1ccc(C(=O)N2CCC(c3cc4c(-c5c[nH]c6ccccc56)ccnc4[nH]3)C2)cc1` (centres unmarked) [Example 129, N-(4-(3-(4-(1H-Indol-3-yl)-1H-pyrrolo[2,3-b]pyridin-2-yl)pyrrolidine-1-carbonyl)phenyl)acrylamide], the IC50 in experiment [1] is less than 100 nM; in experiment [2] it was 1000 to 10000 nM.

As for `C=CC(=O)Nc1cccc(C(=O)N2CCC(c3cc4c(-c5cnn6ncccc56)ccnc4[nH]3)C2)c1` (centres unmarked) [Example 141, N-(3-(3-(4-(Pyrazolo[1,5-b]pyridazin-3-yl)-1H-pyrrolo[2,3-b]pyridin-2-yl)pyrrolidine-1-carbonyl)phenyl)acrylamide], the IC50 was less than 100 nM in experiment [1] and less than 1000 nM in experiment [2].

Regarding `O=C(CCl)Nc1ccc(C(=O)N2CCC(c3cc4c(-c5cnn6ncccc56)ccnc4[nH]3)C2)cc1` (centres unmarked) [Example 144, 2-Chloro-N-(4-(3-(4-(pyrazolo[1,5-b]pyridazin-3-yl)-1H-pyrrolo[2,3-b]pyridin-2-yl)pyrrolidine-1-carbonyl)phenyl)acetamide], the IC50 is less than 100 nM in experiment [1] and less than 1000 nM in experiment [2].

On to `O=C(CCl)Nc1cccc(C(=O)N2CCC(c3cc4c(-c5cnn6ncccc56)ccnc4[nH]3)C2)c1` (centres unmarked) [Example 145, 2-Chloro-N-(3-(3-(4-(pyrazolo[1,5-b]pyridazin-3-yl)-1H-pyrrolo[2,3-b]pyridin-2-yl)pyrrolidine-1-carbonyl)phenyl)acetamide], for which the values for the IC50 in experiment [1] and in experiment [2] were less than 100 nM and less than 1000 nM, respectively.

Turning to `C#CC(=O)Nc1cccc(C(=O)N2CCC(c3cc4c(-c5cnn6ncccc56)ccnc4[nH]3)C2)c1` (centres unmarked) [Example 146, N-(3-(3-(4-(Pyrazolo[1,5-b]pyridazin-3-yl)-1H-pyrrolo[2,3-b]pyridin-2-yl)pyrrolidine-1-carbonyl)phenyl)propiolamide], the IC50 in experiment [1] is less than 100 nM; in experiment [2] it was less than 1000 nM.

As to `C=CC(=O)Nc1cccc(C(=O)N2CC[C@H](c3cc4c(-c5cnn6ncccc56)ccnc4[nH]3)C2)c1` [Example 151, (S)—N-(3-(3-(4-(Pyrazolo[1,5-b]pyridazin-3-yl)-1H-pyrrolo[2,3-b]pyridin-2-yl)pyrrolidine-1-carbonyl)phenyl)acrylamide], the IC50 in experiment [1] was less than 100 nM; in experiment [2], less than 1000 nM.

Take `O=C([C@H]1CCCN1C(=O)CCl)N1CCC(c2cc3c(-c4cnn5ncccc45)ccnc3[nH]2)C1` (stereo partly drawn) [Example 156, 2-Chloro-1-((2R)-2-(3-(4-(pyrazolo[1,5-b]pyridazin-3-yl)-1H-pyrrolo[2,3-b]pyridin-2-yl)pyrrolidine-1-carbonyl)pyrrolidin-1-yl)ethan-1-one]: the IC50 in experiment [1] was less than 100 nM; in experiment [2] it was less than 1000 nM.
